The source of these data is article PMC5958115, “A novel small molecule chaperone of rod opsin and its potential therapy for retinal degeneration” (Nature Communications, 2018).

The target of one series is T1, rod opsin (Mus musculus, UniProt P15409).
T1 construct: expressed in transfected cells
Kind of series: cAMP quantification assay in NIH3T3-(WT-opsin/GFP) cells with forskolin. In kind it is cell-based. The protocol: NIH3T3-(Opsin/GFP) and NIH3T3-(GFP) were plated in two 96-well plates at a density of 50,000 cells per well in 100 µL of DMEM medium containing 10% FBS and antibiotics. After 24 h, cells were washed with Krebs Ringer bicarbonate buffer containing glucose (KRBG), and incubated with KRBG buffer containing 100 µM cAMP specific phosphodiesterase inhibitor, Ro 20–1724 (Tocris, UK) at RT for 10 min. […] While one plate then was wrapped with aluminum foil, the second plate was exposed to regular room light. Both plates were kept in a cell culture incubator for 15 min at 37 °C in 5% CO2. Levels of accumulated cAMP were detected with the Catchpoint cAMP fluorescent assay kit (Molecular Devices, Sunnyvale, CA USA) and the fluorescence with excitation/emission at 530/590 nm was read with a Flexstation3 plate reader (Molecular Devices) as described in the manufacturer’s protocol.

The subject of a further series is NIH3T3 cells. Kind of series: Cell number in high-content imaging of NIH3T3 cells. In kind it is cell-based, mouse. The protocol: To characterize the effect of active compounds on the localization of P23H-mutant opsin in mammalian cells, an image-based assay was used with cells immunostained for WT or P23H-mutant opsin protein[18]. Briefly, NIH3T3-(P23H opsin/GFP) or NIH3T3-(WT-opsin/GFP) cells were seeded at 5000 cells per well in a 384-well cell-carrier plate (PerkinElmer) and incubated at 37 °C with 5% CO2 for 2 h. Cells were treated with compounds as described for the β-Gal fragment complementation assay and incubated in assay medium for 24 h. The assay medium then was aspirated, and cells were fixed with 4% paraformaldehyde at 20 µL per well for 20 min at RT. […] Fluorescence images were obtained with the Operetta High Content Imaging System (PerkinElmer) using a ×20 long objective. Five fields were taken of each well for cell images using three channels for fluorescence: GFP (100 ms), Cy3 (300 ms), and DAPI (50 ms). Images were analyzed with Acapella software from the Columbus data storage and analysis system (PerkinElmer)[18]. For cells immunostained with opsin on the non-permeabilized cell membrane only, an average of total fluorescence intensity of Cy3 per cell was used to quantify opsin in each well of the 384-well plate. […]

Series [1] is described as follows: Pharmacokinetics of YC-001 in mouse plasma. The format is in vivo, C57BL/6 mice. As to the method: C57BL/6J mice ranging from 8 to 12 weeks of age were purchased from Jackson Labs. For administration, YC-001 was dissolved in DMSO at 160 mg mL^−1. To obtain the blood clearance curve for YC-001, each animal was treated by i.p. injection of YC-001 at 200 mg kg^−1 bw. After administration, blood was collected at 5, 10, 15, 20, 30, 45, 60, and 90 min from the orbital sinus and dropped into K2EDTA blood collection tubes (FisherScientific). Mice were anesthetized with a ketamine/xylazine cocktail two min before blood collection. The blood samples were then incubated at 4 °C for 2 h before centrifugation at 1800×g for 20 min to collect the plasma in the supernatant. Plasma was mixed with twice the volume of methanol and then stored at −80 °C. YC-001 was extracted from the samples (300 to 600 μL) with 0.6 mL chloroform. The chloroform fraction was collected, dried, and the extracted organic compounds were dissolved in 0.25 mL of methanol. One hundred µL of each sample was injected onto an Eclipse XDB-C18 column (4.6 × 150 mm, 5 µm) and YC-001 was detected and quantified as described in the section Metabolic stability of YC-001.

Read-outs that look alike come from different tables or passages of the source.

T1 sequence (P15409 whole entry): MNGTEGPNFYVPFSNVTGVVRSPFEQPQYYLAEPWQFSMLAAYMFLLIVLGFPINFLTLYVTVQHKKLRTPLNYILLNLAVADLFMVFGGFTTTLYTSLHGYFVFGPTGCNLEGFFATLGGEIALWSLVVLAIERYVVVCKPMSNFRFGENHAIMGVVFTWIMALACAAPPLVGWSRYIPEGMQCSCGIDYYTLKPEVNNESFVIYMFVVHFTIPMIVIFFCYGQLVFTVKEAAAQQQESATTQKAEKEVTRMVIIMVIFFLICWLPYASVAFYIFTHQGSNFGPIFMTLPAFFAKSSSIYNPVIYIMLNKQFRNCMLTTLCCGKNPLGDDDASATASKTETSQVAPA

The term EC50 denotes the concentration needed to bring the measured effect to its halfway point. As for `CC1=C(/C=C/C(C)=C\C=C\C(C)=C\C=O)C(C)(C)CCC1` [9-cis-retinal, reference compound], the “fold increase in the EC50 of 9-cis-retinal” value at rod opsin (40 μM YC-001 co-treatment vs 9-cis-retinal alone) amounted to 3 fold. The EC50 at rod opsin (9-cis-retinal alone, under light, read-out: EC50, cAMP levels) is 0.0757 µM. Further, the “concentration that euthanized most cells” value with NIH3T3 cells (24 h treatment) is “higher than 10 µM”.
On to `O=C1OCC(c2ccc(Cl)s2)=C1c1cccs1` [YC-001], for which the half-maximal effective concentration (EC50) at rod opsin (YC-001 alone, dark or light, read-out: EC50, increase in cAMP levels) was found to be 8.22 µM. Moreover, the EC50 on rod opsin (YC-001 with 1 μM 9-cis-retinal, under light, read-out: EC50, increase in cAMP levels) is 29.9 µM. Further, the k el in series [1] (C57BL/6J, mouse, plasma, intraperitoneal, 200 mg kg^−1 bw, estimated from T1/2 and C0, read-out: elimination rate constant (Ke) (converted)) is 0.000335 s⁻¹. Also, the C0 in series [1] (C57BL/6J, mouse, plasma, ip, i.p. 200 mg kg^−1 bw, read-out: initial plasma concentration (C0)) stood at 7280 ng/mL. The half-life in series [1] (C57BL/6J, mouse, plasma, ip, i.p. 200 mg kg^−1 bw, read-out: plasma half-life (T1/2)) was determined as 34.5 min. Moreover, in series [1] (estimated from T1/2 and C0), the clearance is on record as 0.552 L min^−1 kg^−1 bw and the “volume of distribution (Vd)” value is 27.5 L kg^−1 bw. Moreover, in the series with NIH3T3 cells (up to 40 µM), the “effect on cell number” value is listed as “did not affect cell number”.
